In assay [1] the test system is MDA-MB-231. The assay is described as follows: Cytotoxicity against human MDA-MB-231 cells assessed as reduction in cell survival by clonogenic assay. It counts as functional, cell-based.
The test system of assay [2] is MDA-MB-231. In words: Cytotoxicity against human MDA-MB-231 cells assessed as increase in deformation and shrinkage of nuclei by DAPI staining-based fluorescence microscopic analysis. It counts as functional, cell-based. To be noted: dose 0.5-2.5 µM.
Assay [3] concerns MDA-MB-231. In words: Induction of apoptosis in human MDA-MB-231cells assessed as downregulation of Bcl-xl level by measuring fold change in Bcl-xl expression by Western blot analysis relative to control. It counts as functional. (In general: Immunoblotting shows a protein as a band on a membrane.)
Assay [4] concerns MDA-MB-231. In words: Cytotoxicity against human MDA-MB-231 cells assessed as apoptotic nuclei at 5 uM by DAPI staining based fluorescence microscopic analysis (reference value: 4.17 to 6.67%). It counts as functional.
Assay [5] concerns MDA-MB-231. In words: Cytotoxicity against human MDA-MB-231 cells assessed as apoptotic nuclei at 3 uM by DAPI staining based fluorescence microscopic analysis (reference value: 4.17 to 6.67%). It counts as functional.
For a further assay, the system named is MCF-10A. The assay is described as follows: Cytotoxicity against human MCF-10A cells. It counts as cell-based.
Assay [6] deals with MDA-MB-231. In words: Genotoxicity in human MDA-MB-231 cells assessed as induction of DNA damage at 3 uM incubated for 24 hrs by comet assay. It counts as functional, cell-based.
For assay [7], the system named is MDA-MB-231. In words: Induction of apoptosis in human MDA-MB-231cells as increase in cleaved PARP1 level by measuring fold change in cleaved PARP1 expression by Western blot analysis relative to control. It counts as functional.
For assay [8], the system named is MDA-MB-231. The assay is described as follows: Cytotoxicity against human MDA-MB-231 cells assessed as normal nuclei at 2 uM by DAPI staining based fluorescence microscopic analysis (reference value: 85.71 to 95.83%). It counts as functional.
In another assay the test system is MCF7. The assay is described as follows: Cytotoxicity against human MCF7 cells assessed as reduction in cell viability incubated for 48 hrs by MTT assay. It counts as functional, cell-based. To be noted: Homo sapiens, MCF7, 48 h; read-out: IC50. On the technique in general: Tetrazolium dyes change colour on reduction, which living cells bring about.
In assay [9] the test system is MDA-MB-231. In words: Cytotoxicity against human MDA-MB-231 cells assessed as apoptotic nuclei at 4 uM by DAPI staining based fluorescence microscopic analysis (reference value: 4.17 to 6.67%). It counts as functional.
The subject of assay [10] is MDA-MB-231. The assay is described as follows: Cytotoxicity against human MDA-MB-231 cells assessed as reduction in cell viability incubated for 48 hrs by MTT assay. It counts as functional, cell-based. To be noted: Homo sapiens, MDA-MB-231, 48 h; read-out: IC50.
Assay [11] concerns MDA-MB-231. In words: Cytotoxicity against human MDA-MB-231 cells assessed as apoptotic nuclei at 1 uM by DAPI staining based fluorescence microscopic analysis (reference value: 4.17 to 14.29%). It counts as functional.
A further assay concerns HEK-293T. In words: Cytotoxicity against human HEK293T cells assessed as reduction in cell viability incubated for 48 hrs by MTT assay. It counts as cell-based.
Assay [12] concerns MDA-MB-231. The assay is described as follows: Cytotoxicity against human MDA-MB-231 cells assessed as normal nuclei at 3 uM by DAPI staining based fluorescence microscopic analysis (reference value: 93.33 to 95.83%). It counts as functional.
Assay [13] deals with MDA-MB-231. The assay is described as follows: Cytotoxicity against human MDA-MB-231 cells assessed as normal nuclei at 1 uM by DAPI staining based fluorescence microscopic analysis (reference value: 85.71 to 95.83%). It counts as functional.
For assay [14], the system named is MDA-MB-231. In words: Cytotoxicity against human MDA-MB-231 cells assessed as normal nuclei at 5 uM by DAPI staining based fluorescence microscopic analysis (reference value: 93.33 to 95.83%). It counts as functional.
In assay [15] the test system is MDA-MB-231. The assay is described as follows: Induction of apoptosis in human MDA-MB-231 cells assessed as upregulation of Bax level by measuring fold change in Bax expression by Western blot analysis relative to control. It counts as functional.
The subject of assay [16] is MDA-MB-231. The assay is described as follows: Cytotoxicity against human MDA-MB-231 cells assessed as apoptotic nuclei at 2 uM by DAPI staining based fluorescence microscopic analysis (reference value: 4.17 to 14.29%). It counts as functional.
The test system of assay [17] is MDA-MB-231. In words: Cytotoxicity against human MDA-MB-231 cells assessed as normal nuclei at 4 uM by DAPI staining based fluorescence microscopic analysis (reference value: 93.33 to 95.83%). It counts as functional.
Assay [18] can be described thus: Cytotoxicity against human H357 cells assessed as reduction in cell viability incubated for 48 hrs by MTT assay. It counts as functional, cell-based. Conditions: Homo sapiens, H357, 48 h; read-out: IC50.

pIC50: −log10 of the molar value. Active and inactive are the calls of the source. The rule behind the calls is not given here.

Regarding `O=C1C=C(Nc2cccc3ccccc23)C(=O)c2ccccc21`, the negative logarithm of the IC50 (pIC50) in the assay with MDA-MB-231 [1] was 5.62; in the assay with MCF-10A, 4.00; in the assay on MCF7, 5.51; in the assay with MDA-MB-231 [10] it was 5.49; in the assay on HEK-293T, 5.25; in assay [18] it was 5.24. In addition, the Activity entry is “Dose-Dependent Effect” in the assay with MDA-MB-231 [2]; 88.89% in the assay on MDA-MB-231 [4]; 55.56% in the assay with MDA-MB-231 [5]; 71.43% in the assay on MDA-MB-231 [8]; 74.36% in the assay with MDA-MB-231 [9]; 11.9% with MDA-MB-231 [11]. Also, the Activity in the assay with MDA-MB-231 [12] is recorded as 44.44%; in the assay on MDA-MB-231 [13] it was 88.1%; in the assay on MDA-MB-231 [14], 11.11%; in the assay on MDA-MB-231 [16], 28.57%; in the assay with MDA-MB-231 [17] it was 25.64%. In addition, the entries for the “fold change (FC)” value in the assay with MDA-MB-231 [3], in the assay on MDA-MB-231 [7] and with MDA-MB-231 [15] were 0.4, 0.8 and 2.3, respectively. Besides, the result in the assay on MDA-MB-231 [6] was Active.

As to `O=C1c2cccc(O)c2C(=O)c2c1[nH]c1ccccc21`, the pIC50 in the assay with MDA-MB-231 [1] is 5.57; with MCF-10A, 3.98; in the assay with MCF7 it was 5.52; in the assay with MDA-MB-231 [10], 5.49; with HEK-293T it was 5.40; in assay [18] it was 5.44. In addition, the Activity entry in the assay with MDA-MB-231 [2] is “Dose-Dependent Effect”; with MDA-MB-231 [4] it was 73.33%; in the assay on MDA-MB-231 [5] it was 48.48%; in the assay on MDA-MB-231 [8] it was 63.64%; in the assay with MDA-MB-231 [9], 55.56%; in the assay with MDA-MB-231 [11], 25.93%. Also, the Activity in the assay on MDA-MB-231 [12] is reported as 51.52%; in the assay on MDA-MB-231 [13] it was 74.07%; in the assay with MDA-MB-231 [14] it was 26.67%; with MDA-MB-231 [16], 36.36%; in the assay on MDA-MB-231 [17], 44.44%. Besides, the “fold change (FC)” value with MDA-MB-231 [3] was 0.2; in the assay with MDA-MB-231 [7], 1; in the assay on MDA-MB-231 [15] it was 2.2. For the same molecule, the outcome with MDA-MB-231 [6] was Active.

As a reminder, the pIC50 is −log10 of the IC50, conventionally taken in molar units.
